Test [1] has as its target T1, human ASIC3 (Homo sapiens, UniProt Q9UHC3).
T1 construct: CHO cells stably expressing human ASIC3 (NM_004769.1)
T1 sequence (Q9UHC3 1-531): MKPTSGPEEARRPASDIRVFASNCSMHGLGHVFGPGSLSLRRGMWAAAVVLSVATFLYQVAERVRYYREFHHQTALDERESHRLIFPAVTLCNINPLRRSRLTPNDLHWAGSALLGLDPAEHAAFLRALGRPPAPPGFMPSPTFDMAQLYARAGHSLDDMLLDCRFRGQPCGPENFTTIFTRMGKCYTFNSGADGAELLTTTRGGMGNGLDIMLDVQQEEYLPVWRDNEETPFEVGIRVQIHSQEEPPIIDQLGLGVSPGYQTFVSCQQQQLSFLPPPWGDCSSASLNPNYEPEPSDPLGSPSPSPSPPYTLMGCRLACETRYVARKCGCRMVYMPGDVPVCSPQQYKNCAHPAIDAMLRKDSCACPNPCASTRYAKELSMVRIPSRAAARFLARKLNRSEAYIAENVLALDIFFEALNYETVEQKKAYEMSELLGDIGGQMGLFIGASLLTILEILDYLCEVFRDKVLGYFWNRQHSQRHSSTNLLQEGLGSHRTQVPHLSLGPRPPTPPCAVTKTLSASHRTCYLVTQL
The format is cell-based. As to conditions: 30 µM, QPatch II.

The target in test [2] is T1, human ASIC3. In words: cell-based.
The target in a further test is T2, ASIC3 E78Q (Homo sapiens, UniProt Q9UHC3, E78Q).
T2 construct: human ASIC3 (NM_004769.4); P2A-mCherry reporter (C, cleaved yes); expressed in transfected cells; host or cells: CHO cells (85050302, Sigma), transient transfection
T2 sequence (Q9UHC3 1-531 E78Q): T1 sequence (Q9UHC3 1-531) with E78Q
The test can be described thus: MPC peptide activity on ASIC3 E78Q mutant (I3s/Ipk, peak current, double mutant cycle). The format is cell-based. As to conditions: read-out: EC50 (95% CI).

For a further test, the target named is T3, ASIC131 (Homo sapiens, UniProt Q9UHC3).
T3 construct: placing human ASIC1a and human ASIC3 ORFs in tandem; expressed in transfected cells; host or cells: WT CHO cells (85050302, Sigma), transient transfection
T3 sequence (Q9UHC3 1-531): T1 sequence (Q9UHC3 1-531)
In words: MPC WRPRFa concentration-response on concatemer ASIC131. As to conditions: read-out: lower limit EC50. The test is classed as cell-based.

The target in a further test is T4, ASIC313 (Homo sapiens, UniProt Q9UHC3).
T4 construct: placing human ASIC1a and human ASIC3 ORFs in tandem; P2A-mCherry reporter (C, cleaved yes); expressed in transfected cells; host or cells: WT CHO cells (85050302, Sigma), transient transfection
T4 sequence (Q9UHC3 1-531) 1: T1 sequence (Q9UHC3 1-531)
T4 sequence (Q9UHC3 1-531) 2: T1 sequence (Q9UHC3 1-531)
In words: MPC WRPRFa concentration-response on concatemer ASIC313. As to conditions: read-out: lower limit EC50. The format is cell-based.

A further test deals with T5, ASIC3 E378Q (Homo sapiens, UniProt Q9UHC3, E378Q).
T5 construct: human ASIC3 (NM_004769.4); P2A-mCherry reporter (C, cleaved yes); expressed in transfected cells; host or cells: CHO cells (85050302, Sigma), transient transfection
T5 sequence (Q9UHC3 1-531 E378Q): T1 sequence (Q9UHC3 1-531) with E378Q
In words: MPC peptide activity on ASIC3 E378Q mutant. As to conditions: read-out: EC50 (95% CI). The test is classed as cell-based. How it is done: We individually mutated the four glutamates to glutamine to remove their charge but maintain the side chain structure (Fig. 4C). We tested each mutant by incubating HEK cells stably expressing ASIC3 or CHO cells transfected with mutant ASIC3 with 30 µM WRPRFa before a pH 6.3 acid stimulus.
All mutagenesis was performed at Genscript, and sequences were verified by nanopore sequencing by Plasmidsaurus (Eugene, OR). The numbering of ASIC3 amino acids is based on RefSeq NP_004760.1. Plasmids were transfected into CHO cells using Lipofectamine 3000 (Thermo) according to the manufacturer’s protocol. Cells were used for patch-clamp recordings 24–48 h after transfection.
CHO and HEK cells were tested in the whole-cell configuration on MPC platforms using an Axopatch 200B amplifier (Axon Instruments, San Jose, CA) and a Digidata 1322A or Digidata 1440A digitizer (Axon) using pClamp 9.2 or 10.7 (Molecular Devices, San Jose, CA), respectively. When testing transfected cells, red fluorescence from the cleaved mCherry reporter was used to identify cells expressing ASIC3, ASIC131, or ASIC313. For cells expressing transfected ASIC1a or ASIC2a, the green signal from the cleaved eGFP reporter was used. All electrophysiology data were analyzed with Clampfit 11.1 (Molecular Devices).

Changes are numbered by the printed parent chain. Read-outs that look alike come from different tables or passages of the source. Where no end group is shown, it is not given here. Bounds are passed on as bounds.

From the text for ASIC131: (§1) For peptide concentration-response curves, Bottom was set to 0 and Top was constrained to ≤ 1 for peptides that approached plateau phase or where I3s/Ipk reached 1. […] For activation- or desensitization-pH curves, Bottom was set to 0 and Top constrained to 1.
From the text for ASIC3 E78Q: We then asked which of the two WRPRFa arginines interacts with the E78/E421 pair. […] To this end, we used a double mutant cycle approach to identify coupling between site 2 or site 4 of WRPRFa with the E78/E421 pair. In this case, the double mutant cycle experiment compared the change in potency caused by single mutations in either WRPRFa or ASIC3 against the change in potency caused by simultaneous mutations in WRPRFa and ASIC3. A coupling coefficient (Ω) can be calculated by dividing the product of the WT/WRPRFa potency and double mutant potency by the product of the two single mutant potencies.
as §1
From the text for ASIC313: as §1

With WRPRF-NH2 [WRPRFa], the channels affected is 80% at human ASIC3 [1] and around 90% at human ASIC3 [2] (100 µM, MPC). For the same substance, the EC50 at human ASIC3 [2] was 6.22 µM; on ASIC3 E78Q, 0.206 µM; on ASIC131, at least 32.4 µM; at ASIC313, at least 12.6 µM; at ASIC3 E378Q it was 9.59 µM.

Usually EC50 stands for the concentration giving half of the maximal effect.

The values above are taken from paper PMC12738692, “Identification, characterization, and structure-activity relationship of the ASIC3-selective peptide WRPRFa” (Communications Chemistry, 2025).
